These are literature values, as cited in patent US12721834B2, “Combination treatment for Netherton syndrome” (Quoin Pharmaceuticals Inc., priority 2023, dated 2026).

For this data set the following is noted: in vivo.

In the case of “Poly(vinylpyrrolidone/1-hexadecene) [PVPH]”, the dermal toxicity result is on record as “no demonstrable dermal toxicity”.

For “Poly(vinylpyrrolidone/1-eicosene) [PVPE]”, the dermal toxicity entry was “no demonstrable dermal toxicity”.
